# Assay results from patent publication US5324633A, “Method and apparatus for measuring binding affinity” (Affymax Technologies N.V., priority 1991, dated 1994).
# Read-outs that look alike come from different tables or passages of the source. Where no end group is shown, it is not given here.
# Tests used:
# Herz antibody [1] = conditions: solution, comparison value, cited from earlier work
# Herz antibody [2] = assay: Binding affinity of fluorescein-labelled receptor to surface-bound peptide, confocal fluorescence intensity at varying receptor concentrations
# Text: At step 104 the array or arrays of polymers are exposed to a receptor at a first solution concentration [R]1. According to some embodiments the receptor is marked with an appropriate label such as a fluorescein tag. Fluorescent tags are preferred because the measurements herein are usually taken with a receptor solution in contact with the immobilized ligands to ensure that the immobilized ligand are in equilibrium with the receptor. […] Confocal microscopy provides one preferred method of distinguishing between surface receptor fluorescence and background fluorescence from bulk solution receptors, due to the limited depth of field of a confocal microscope. Because the microscope cannot completely exclude fluorescence from bulk solution, contributions of the bulk fluorescence can be eliminated by comparing areas of derivatized and underivatized substrates. This method for eliminating background fluorescence may not be accurate at high receptor concentrations, when non-specific receptor binding to underivatized substrates becomes non-negligible.
# At step 106 the array of the polymers is exposed to the receptor, for a time sufficient to allow receptor-ligand interaction, preferably to equilibrium conditions, and at step 108 the fluorescence intensity of the receptor at each of the concentrations [R]n is determined for each of the ligands on each array. […]
# At step 110 this information is fit to analysis equations or otherwise processed for determination of the binding affinity of the receptor to the various ligands on the substrate and at step 112 the Kd values, among others, are extracted. In a most preferred embodiment the data are used to determine binding affinity by determining the slope of a best fit line through a plot having, on the y-axis, the ratio of fluorescence intensity to receptor concentration and, on the x-axis, the fluorescence intensity. […] To faciltate comparison to other experiments, one can plot normalized fluorescence intensity on the y axis or receptor concentration on the x axis. […]
Substance,Kd (Herz antibody [1]; read-out: Kd value from other solution experiments),"binding affinity by interpolating plot of relative fluorescence intensity vs log10 receptor concentration (FIG. 5) (Herz antibody [2]; interpolated between 10^-8 M and 10^-9 M curves, peptide synthesized as free peptide then immobilized on surface)","Kd from slope of best fit line, ratio of fluorescence intensity to receptor concentration vs fluorescence intensity (FIG. 4) (Herz antibody [2]; peptide synthesized on substrate, equilibrium over about 24 hours, non-derivatized substrate background subtracted)",Kd (Herz antibody [1]; read-out: binding affinity value from other solution experiments),"Kd (Herz antibody [2]; sequences synthesized on different chips, exposed to Herz antibody, read-out: Kd / binding affinity from isotherms (FIG. 6))"
YGGFL,10 nM,about 1.8×10^-8 M,18 nM,–,–
YGTFL (not fully specified),–,–,–,500 nM,~700 nM
